Measured values reported in patent publication US20190307820A1, “COMPOSITIONS AND METHODS OF USING STAT1/3 INHIBITORS WITH ONCOLYTIC HERPES VIRUS” (priority 2016, published 2019).

Experiments:
ICP27 = experiment: Western blot of ICP27 in HSV-1 infected microglia cells; type: cell-based; settings: for ICP27 expression: 1 μM C16, 24 hours
Description: (§1) FIG. 12B depicts an electrophoresis gel showing total proteins that were harvested from G2O7 infected microglia cells at 24 hours post treatment with either 1 μM of C16, 1 μM of Bay11, or 100 μM of AG. ICP27, ICP4, and […] expression was measured by western blot assay. U87 and MG co-culture were pretreated with 0.5 μM of C16 for 1 hour.
as §1, with “12C” for “12B”, “HrR3 or KOS” for “G2O7”, “post-treatment” for “post treatment”, “with” for “with either”, “PKR-i (C16).” for “C16, 1 μM of Bay11, or 100 μM of AG.”
Total protein was harvested with sample buffer (125 mM Tris-HCL, 50% Glycerol, […] and 5% 2-mercaptoethanol) and boiled for 5 minutes. Protein samples were subjected to SDS-PAGE (8% gel), transferred to nitrocellulose membranes and blocked in 5% nonfat milk (Bio Rad) in TBS-Tween 20 (TBS-T) for 1 hour at room temperature. The membranes were then incubated with primary antibody against β-actin at 1:1000 (Cell Signaling, Danvers, Mass.) or anti-STAT1 antibody at 1:1000 (Cell Signaling, Danvers, Mass.) or anti-STAT3 antibody at 1:1000 (Cell Signaling, Danvers, Mass.) or anti-phospho STAT1 antibody (Tyr701) at 1:1000 (Cell Signaling, Danvers, Mass.) or anti-phospho STAT3 antibody (Tyr705) at 1:1500 (Cell Signaling, Danvers, Mass.) or anti-phosphor-eIF2a antibody (ser51) at 1:1000 (Cell Signaling, Danvers, Mass.) or anti-ICP27 antibody at 1:1000 (Abcam, Cambridge, Mass.) or anti-ICP4 antibody at 1:750 (Abcam, Cambridge, Mass.) for overnight at 4° C. The membranes were washed the next day with TBS-T three times and incubated with corresponding secondary antibody at 1:3000 (Perkim Elmer, Boston, Mass.), for 1 hour at room temperature. Membranes were washed with TBS-T three times before visualization using ECL reagent (Perkim Elmer, Boston, Mass.) and VersaDoc imaging system (Bio-Rad). Band density was measured by using ImageJ software (NIH, Bethesda, Md.). […]

9L cells = experiment: MTT cytotoxicity assay, 9L cells; type: cell-based; settings: 72 hours, read-out: Inhibitory concentration 50% (IC50)
Description: (§2) FIGS. 1A-1B are graphs that show an anti-tumor effect of nifuroxazide. (FIG. 1A) Cells were treated with indicated concentration of nifuroxazide for 72 hours. Cytotoxicity was measured by using MTT assay. (FIG. 1B) Subcutaneously U87 tumor bearing mice were peritoneally injected with indicated doses of nifuroxazide. Tumor size was measured using calipers at day 7 post nifuroxazide treatment.
(§3) In this example, the antitumor effect of nifuroxazide is evaluated in different tumor cells. Cells were treated with nifuroxazide for 72 hours (FIG. 1A). […] To verify the anti-tumor efficacy of nifuroxazide in vivo, animals with subcutaneous U87 tumor implants were injected in the peritoneum with vehicle, 1 mg/kg nifuroxazide and 50 mg/kg nifuroxazide. […] Tumor volume was reduced around 25% and 60% after 7 days treatment with 1 mg/kg nifuroxazide and 50 mg/kg nifuroxazide respectively (FIG. 1B).
(§4) Cells were seeded in a 96-well plate at a density of 1×104 (U87). After overnight incubation, cells were treated with only vehicle or indicated MOI of virus or indicated concentration of drugs or reagents. After 2 to 3 days of treatment cell viability was measured by MTT assay (Sigma, Canada) according to the manufacturer's instruction. […] After overnight incubation with lysis buffer, cell viability was measured at 595 nm using a plate reader (Envision 2103 Multilabel reader, Perkin Elmer).

U373 cells = experiment: MTT cytotoxicity assay, U373 cells; type: cell-based; settings: Homo sapiens, U373 MG, 72 hours, read-out: Inhibitory concentration 50% (IC50)
Description: as §2, §3, §4

ICP27 mRNA = experiment: RT-qPCR of ICP27 mRNA in HrR3 infected U87 cells; type: cell-based, HSV-1; settings: HrR3 MOI-5, 6 hours
Description: FIGS. 4A-4C show the effect of nifuroxazide on HSV-1 gene expression. (FIG. 4A) U87 cells were treated with HrR3 viruses at a MOI-3 and indicated doses of nifuroxazide. 24 hours post infected, total protein was extracted and subjected to western blot analysis. (FIG. 4B) U87 cells were treated with HrR3 at a MOI-5 and indicated concentration of nifuroxazide for 6 hours. ICP27 mRNA level was detected by RT-qPCR. (FIG. 4C) Relative mRNA level (2^−ΔΔCT) is shown. Data are presented as mean SD, *P<0.05 vs corresponding vehicle treatment.
In this example, the underlying mechanism of nifuroxazide mediated oHSV-1 replication enhancement was examined. The effect of nifuroxazide on viral immediate early gene, ICP27 and ICP4 expression was established by Western blot analysis.

[1] = test system: oHSV-1 (HrR3) in U87 tumors; experiment: oHSV-1 amplification in subcutaneous U87 tumors in vivo (viral DNA qPCR, immunohistochemistry); parameters: species or system mice
Excerpt: FIGS. 6A and 6B show results of in vivo dose dependent HrR3 replication augmentation by nifuroxazide. Subcutaneously U87 tumor bearing mice were intratumorally injected with single dose of HrR3 virus (n=2; […]) or peritoneally injected indicated concentration of nifuroxazide or both combination. Tumors were harvested at day 10 post treatment (FIG. 6A) Total genomic DNA was extracted from the harvested tumors. Viral DNA particles (ICP27) were detected by qPCR and normalized to β-actin. (FIG. 6B) ICP4 and STAT1 expression were determined by immunohistochemistry assay on harvested tumor tissues. Stained sections were then imaged using confocal microscopy.
In this example, oHSV-1 replication augmentation effect was evaluated in vivo. Subcutaneously implanted U87 tumors were treated with either HrR3 alone or in combination with 50 mg/kg nifuroxazide or 100 mg/kg nifuroxazide. Dose dependent oHSV-1 amplification was determined by measuring viral DNA by qPCR in tumor mass. oHSV-1 augmentation was observed 1.6 fold and 2.2 fold by 50 mg/kg nifuroxazide 100 mg/kg nifuroxazide respectively (FIG. 6A).

Row | Structure (SMILES) | upregulated expression of ICP27 (ICP27; G207 infected, 1 μM C16, 1 μM Bay11 or 100 μM AG, 24 hours) [fold] | ICP27 expression (ICP27; HrR3 infected BV2 cells) | ICP27 expression (ICP27; KOS infected BV2 cells) | IC50 (9L cells) [µM] | IC50 (U373 cells) [µM] | ICP27 mRNA expression (ICP27 mRNA) | oHSV-1 augmentation (viral DNA by qPCR in tumor mass) ([1]; 50 mg/kg nifuroxazide with HrR3, day 10) [fold] | oHSV-1 augmentation (viral DNA by qPCR in tumor mass) ([1]; 100 mg/kg nifuroxazide with HrR3, day 10) [fold] | oHSV-1 amplification by immunohistochemistry assay ([1]; harvested tumor tissues)
1 | O=C1Nc2ccc3ncsc3c2/C1=C/c1c[nH]cn1 [C16, 6,8-Dihydro-8-(1H-imidazol-5-ylmethylene)-7H-pyrrolo[2,3-g]benzothiazol-7-one] | 25 | upregulated ICP27 expression | upregulated ICP27 expression |  |  |  |  |  | 
2 | O=C(N/N=C/c1ccc([N+](=O)[O-])o1)c1ccc(O)cc1 [nifuroxazide, Benzoic acid, 4-hydroxy-, [(5-nitro-2-furanyl)metylene]hydrazide] |  |  |  | ~27 | ~23 | up-regulation of ICP27 mRNA expression | 1.6 | 2.2 | oHSV-1 amplification was also confirmed
